Experimental data as given in patent publication US11078198B2 (BRISTOL-MYERS SQUIBB COMPANY, priority 2017, dated 2021).

Experiments:
human FXR = target: T1, human FXR (Homo sapiens, UniProt Q96RI1); experiment: transient human FXR/Gal4-luciferase reporter assay; assay type: cell-based; conditions: Gal4-hFXR transfected HEK293 reporter cells; relative to 8 μM GW-4064
T1 construct: expressed in transfected cells; host or cells: HEK293 cells stably carrying a 5xGal4-response-element firefly luciferase reporter, transiently transfected with pcDNA3.1-Gal4-FXR
T1 sequence (Q96RI1 262-486 limits assumed): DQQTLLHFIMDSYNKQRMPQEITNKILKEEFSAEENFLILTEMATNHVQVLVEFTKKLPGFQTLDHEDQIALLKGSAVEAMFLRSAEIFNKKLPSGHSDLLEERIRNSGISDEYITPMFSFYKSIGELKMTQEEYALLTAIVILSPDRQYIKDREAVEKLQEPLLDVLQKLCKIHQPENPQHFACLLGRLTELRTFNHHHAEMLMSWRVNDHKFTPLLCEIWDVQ
Procedure, shortened: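 HEK293 cells stably carrying a 5×Gal4-response-element firefly luciferase reporter, transiently transfected overnight with a CMV-driven Gal4 DNA-binding domain/human FXR ligand-binding domain fusion.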

Cyp7a1 = experiment: Acute mouse in vivo assay, Cyp7a1 gene expression in liver; conditions: @ 6 h
Experimental: (§1) Acute Mouse In Vivo Assay:
(§2) Male, C57BL6/NTac mice, weighing 25-28 g, are purchased from Taconic Labs (Hudson, N.Y.) and maintained on Teklad Global 18% Protein Rodent Diet (Harlan Laboratories). After 1 week acclimation, mice are sorted into groups based upon body weight. Mice are administered a single oral dose of vehicle or experimental compound. Systemic compound exposure is evaluated in plasma derived from blood collected via the submandibular vein at 1 hour post-dose, and at study termination (6 h). At study termination, the animals are euthanized and rapidly dissected. The medial lobe of the liver is divided, with one half being homogenized and analyzed for compound exposure, and the other half saved in RNAlater (Thermo-Fisher Scientific). The ileum is also dissected and preserved in RNAlater. Tissue samples in RNAlater are homogenized with MP Biomedicals' beads. RNA is extracted using the MagMax-96 Total RNA Isolation kit (Thermo-Fisher Scientific) according to the manufacturer's protocol. RNA Concentration is determined with the Nano-Drop 8000 Spectrophotometer (Thermo Fisher). Reverse transcription is done with Invitrogen's SuperScript® VILO cDNA Synthesis Kit according to the manufacturer's protocol. Real time PCR is done with Applied Biosystems' Taqman PCR master mixture according to the manufacturer's protocol. All primers are purchased from Thermo-Fisher Scientific. Mouse genes analyzed include Nr0b2 (which encodes the small heterodimer partner, SHP), Abcb11 (which encodes the bile salt excretion pump, BSEP), Cyp7a1, & Cyp8b1 in liver, and Fgf15, Fabp6 (which encodes ileal bile acid binding protein, I-BABP), Slc51a (which encodes organic solute transporter alpha subunit, OSTA), and Slc51b (which encodes organic solute transporter beta subunit, OSTB) in the ileum. The statistical significant changes in FGF15 gene expression are expressed as fold increase and CYP7A1 expression as a percent reduction relative to vehicle control.

Fgf15 = experiment: Acute mouse in vivo assay, Fgf15 gene expression in ileum; conditions: @ 6 h
Experimental: as §1, §2

| Structure (SMILES) | EC50 (human FXR) [nM] | Cyp7a1 expression, percent reduction relative to vehicle control (Cyp7a1; single oral dose 3 mg/kg) [%] | Fgf15 expression, fold increase relative to vehicle control (Fgf15; single oral dose 3 mg/kg) | Cyp7a1 expression, percent reduction relative to vehicle control (Cyp7a1; single oral dose 30 mg/kg) [%] | Fgf15 expression, fold increase relative to vehicle control (Fgf15; single oral dose 30 mg/kg) |
| --- | --- | --- | --- | --- | --- |
| COc1cc(C(=O)O)nc2ccc(N3CCC4(C=C(c5c(-c6c(Cl)cncc6Cl)noc5C5CC5)C4)CC3)cc12 [Example 108, 6-(2-(5-Cyclopropyl-3-(3,5-dichloropyridin-4-yl)isoxazol-4-yl)-7-azaspiro[3.5]non-1-en-7-yl)-4-methoxyquinoline-2-carboxylic acid] | 32 | −97 | +14 × | – | – |
| CS(=O)(=O)NC(=O)c1cc(C(F)(F)F)c2cc(N3CCC4(C=C(c5c(-c6c(Cl)cncc6Cl)noc5C5CC5)C4)CC3)ccc2n1 [Example 184, 6-(2-(5-Cyclopropyl-3-(3,5-dichloropyridin-4-yl)isoxazol-4-yl)-7-azaspiro[3.5]non-1-en-7-yl)-N-(methylsulfonyl)-4-(trifluoromethyl)quinoline-2-carboxamide] | 73 | −99 | +28 × | – | – |
| O=C(O)c1cc(F)c2nc(N3CCC4(C=C(c5c(-c6c(Cl)cccc6Cl)noc5C5CC5)C4)CC3)sc2c1 [Example 1, 2-(2-(5-Cyclopropyl-3-(2,6-dichlorophenyl)isoxazol-4-yl)-7-azaspiro[3.5]non-1-en-7-yl)-4-fluorobenzo[d]thiazole-6-carboxylic acid] | – | −99 | +18 × | −99 | +31 × |
